System: U2OS cells
Assay: FACS-based nocodazole trap experiment, pHH3 staining after doxorubicin
Format: cell-based
Set-up: pHH3-positive cells: dose or concentration left out as unconfirmed
Description: U2OS cells were infected with lentiviruses delivering luciferase-, MK2-, or Chk1-specific shRNAs (FIG. 1A). The ability of these cells to engage and maintain a functional cell-cycle checkpoint following genotoxic stress was analyzed using a FACS-based nocodazole trap experiment. […] In response to […] doxorubicin treatment for 1 hour, luciferase control shRNA-expressing cells mounted an intra-S and G2/M checkpoint response that remained stable for the 30-hour course of the experiment, as evidenced by the accumulation of a largely pHH3-negative 4N population (bottom panel, left, and FIG. 1B). MK2 shRNA-expressing cells initiated a functional intra-S, G2/M cell-cycle checkpoint that remained intact for at least 18 hours. At the 24-hour measurement, this checkpoint response started to decline with an increasing number of pHH3-positive cells showing a 4N DNA content, reflecting mitotically trapped cells (bottom panel, middle, and FIG. 1B). […] FIG. 1B is a quantification of pHH3 staining of the samples shown in FIG. 1A (n=7 experiments, mean values are shown with error bars indicating standard deviation).
Experiments were performed to determine the role of Chk1 and MK2 in the G2/M checkpoint in p53-deficient cells following DNA damage. In a first set of experiments, U2OS cells were infected with lentiviruses delivering luciferase-, MK2-, or Chk1-specific shRNAs. The ability of ability of these cells to engage and maintain functional cell-cycle checkpoint following genotoxic stress (1 hour of […] doxorubicin) was analyzed using a FACS-based nocodazole trap experiment. The data from these experiments are shown in FIG. 1A and are described below.
The above constructs were expressed in asynchronously growing Chk1- or MK2-knockdown cells, which were left untreated or exposed to doxorubicin for 1 hour, followed by addition of nocodazole for 2 hours after removal of doxorubicin, to capture cells escaping from DNA damage checkpoints in mitosis (FIG. 3B). As an additional control, cells were treated with nocodazole alone. The cells were harvested 30 hours after doxorubicin and cell-cycle disruption was assessed using FACS. […] This arrest was completely abrogated in cells expressing a Chk1 shRNA (FIGS. 3B and 3C).

COc1cccc2c1C(=O)c1c(O)c3c(c(O)c1C2=O)C[C@@](O)(C(=O)CO)C[C@@H]3O[C@H]1C[C@H](N)[C@H](O)[C@H](C)O1 [doxorubicin]
pHH3-positive cells (Chk1-depleted U2OS cells, 12 hours after doxorubicin (1 hour)): 7.7% | pHH3-positive cells (Chk1-depleted U2OS cells, 18 hours after doxorubicin (1 hour)): 15% | pHH3-positive cells (Chk1-depleted U2OS cells, 24 hours after doxorubicin (1 hour)): 25.6% | pHH3-positive cells (Chk1-depleted U2OS cells, 30 hours after doxorubicin (1 hour)): 29.5% | pHH3-positive cells (MK2-depleted U2OS cells, 24 hours after doxorubicin (1 hour)): 13.2% | pHH3-positive cells (MK2-depleted U2OS cells, 30 hours after doxorubicin (1 hour)): 28.5% | mitotic cells with 4N DNA content staining positive for pHH3 (MK2 knockdown U2OS cells, 30-hour course, localization-mutant experiment (FIGS. 3B, 3C)): 21.3% | pHH3-positive cells (MK2 knockdown U2OS cells, 12 hours after doxorubicin (1 hour)): 3.7%±1.2 | pHH3-positive cells (MK2 knockdown U2OS cells, 18 hours after doxorubicin (1 hour)): 3.6±0.5% | pHH3-positive cells (shRNA control U2OS cells, 24 hours after doxorubicin (1 hour)): 0.9% | pHH3-positive cells (shRNA control U2OS cells, 30 hours after doxorubicin (1 hour)): 1.5%

— patent publication US20120252737A1, “Methods for Diagnosing and Treating Cancer” (Massachusetts Institute of Technology, priority 2009, published 2012)
